The results in this text go back to patent US11364209B2, “Methods and compositions for treating atopic dermatitis” (Golden Biotechnology Corporation, priority 2016, dated 2022).

Data set [1] in a line: Outside-in animal model (OVA-sensitized mice): body weight and clinical signs. Format: in vivo. As to conditions: oral doses. The method, then: BALC/c female rat in 6-8-week old is used. Each group has 6-8 rats. Blood sample was taken from the cheek of rat before sensitization. On day 1 and day 8, mice were injected intraperitoneally with 50 μg/mice of OVA-aluminum hydroxide (1:1 v/v). The mice were epicutaneously sensitized with OVA patches on day 15. OVA (100 μg) prepared in PBS was contained in a 2×2-cm patch of sterile gauze that was placed on the shaved backs of mice and secured to the skin with 3 M Tegader film followed by 3 M Coban tape to secure the gauze. After 3 days, the gauze was removed and reapplied. The procedure was repeated three times. Day 27, all the mice in the study was sacrificed and examined.
days 1 and 8 were injected OVA (sensitization), day 15 applied OVA gauze for 3 days (challenge) and rested one day. The application of OVA gauze procedure was repeated 3 times. Starting on day 14, the mice in the group were fed water.
Same procedure as group O except the mice were fed low dose (5 mg/kg BW) of exemplary compound 1.
Same procedure as group O except the mice were fed medium dose (15 mg/kg BW) of exemplary compound 1.
Same procedure as group O except the mice were fed high dose (45 mg/kg BW) of exemplary compound 1.

The nature of data set [2]: Metabolite obtained from urine of rats fed with Compound 1. Format: in vivo. The settings on record: urine samples of rats fed with Compound 1. The method, then: Compound 27 was determined to be 4-hydroxy-2,3-dimethoxy-6-methyl-5-(3-methyl-2-hexenoic acid)cyclohex-2-enone with molecular weight of 312 (C16 H24O6). Compound 25 which was determined as 2,3-dimethoxy-5-methyl-6-((2E,6E)-3,7,11-trimethyldodeca-2,6,10-trienyl)cyclohexa-2,5-diene-1,4-dione (molecular weight of 386.52, C24 H34 O4), was obtained from the purification process.

Where [3] appears, read: all treatment groups, through the study period.

Consider `COC1=C(OC)C(O)C(C/C=C(\C)CC/C=C(\C)CCC=C(C)C)C(C)C1=O` (stereo not shown) [Compound 1, 4-hydroxy-2,3-dimethoxy-6-methyl-5-(3,7,11-trimethyldodeca-2,6,10-trienyl)cyclohex-2-enone], for which, in data set [1] (FIG. 1), the “body weight change between all treatment groups” value is reported as “no significant difference”. In data set [1] (setting [3]), the “loss in body weight” value was “did not lead to any loss in body weight” and the observed clinical signs entry is given as “did not lead to any loss in body weight or any observed clinical signs”.
Consider `COC1=C(OC)C(O)C(C/C=C(\C)CCC(=O)O)C(C)C1=O` (stereo not shown) [Compound 27], for which the “metabolite found in urine” value in data set [2] is recorded as “a metabolite of compound 1”.
